The values that follow come from ChEMBL document CHEMBL1201862, “PubChem BioAssay data set” (2004).

Structures are written as SMILES. Calls of active or inactive are those of the source. A value given as a limit tells only on which side of the number the result lay.

Assay [1] concerns the target Voltage-gated inwardly rectifying potassium channel KCNH2 (Homo sapiens, UniProt Q12809). The conditions noted are these: Potency.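 Also: confirmatory quantitative high-throughput screen measuring inhibition of hERG channel activity.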
For the next assay, the target named is Beta-galactosidase (Escherichia coli, UniProt Q8VNN2). As to the kind of experiment: beta-galactosidase enzyme inhibitors and activators, dose response, artefact control for CCR6 antagonist project, biochemical, E. coli enzyme, set 3 (AID 504712). The format is functional.
Chain of Beta-galactosidase (Q8VNN2 whole entry): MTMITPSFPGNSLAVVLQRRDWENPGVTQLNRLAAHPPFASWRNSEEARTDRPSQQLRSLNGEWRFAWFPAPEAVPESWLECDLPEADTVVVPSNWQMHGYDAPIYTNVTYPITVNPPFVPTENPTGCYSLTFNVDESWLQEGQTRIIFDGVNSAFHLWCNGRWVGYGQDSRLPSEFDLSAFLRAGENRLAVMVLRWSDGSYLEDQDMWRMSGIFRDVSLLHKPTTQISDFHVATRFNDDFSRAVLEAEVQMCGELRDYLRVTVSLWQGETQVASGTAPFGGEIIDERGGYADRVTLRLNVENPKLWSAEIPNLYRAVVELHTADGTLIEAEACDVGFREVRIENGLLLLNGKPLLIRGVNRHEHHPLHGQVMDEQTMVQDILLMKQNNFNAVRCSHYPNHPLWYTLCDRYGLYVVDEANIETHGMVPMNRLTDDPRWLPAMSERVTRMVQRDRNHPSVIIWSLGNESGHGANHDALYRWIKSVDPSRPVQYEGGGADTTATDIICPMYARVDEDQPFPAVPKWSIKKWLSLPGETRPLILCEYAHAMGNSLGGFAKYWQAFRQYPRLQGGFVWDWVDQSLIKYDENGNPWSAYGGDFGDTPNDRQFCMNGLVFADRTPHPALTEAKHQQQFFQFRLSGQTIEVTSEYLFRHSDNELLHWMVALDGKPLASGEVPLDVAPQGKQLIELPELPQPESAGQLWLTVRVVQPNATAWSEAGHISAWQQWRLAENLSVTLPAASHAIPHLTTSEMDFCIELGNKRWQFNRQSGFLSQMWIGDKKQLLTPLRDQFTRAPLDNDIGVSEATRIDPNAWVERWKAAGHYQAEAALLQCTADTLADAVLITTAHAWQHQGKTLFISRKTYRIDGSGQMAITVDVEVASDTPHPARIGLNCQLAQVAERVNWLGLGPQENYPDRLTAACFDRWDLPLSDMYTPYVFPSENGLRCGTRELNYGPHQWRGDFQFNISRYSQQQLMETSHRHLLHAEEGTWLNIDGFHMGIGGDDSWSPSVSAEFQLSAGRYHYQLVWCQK
A short description of assay [2]: HepG2 cell cytotoxicity, dose response, cytotoxicity control for Shn3 inhibitor project, CellTiter-Glo, cherry-picked (AID 624134). The format is functional, cell-based.
Assay [3] in a line: Luminescence Cell-Based Dose Retest to Confirm Inhibitors of Cancer Stem Cells. [Related pubchem assays (depositor defined):AID2717, AID2721]. The conditions noted are these: Homo sapiens. It counts as functional.
A further assay in a line: cells. It counts as functional.
The target in assay [4] is Eukaryotic translation initiation factor 4E (Mus musculus, UniProt P63073). As to the kind of experiment: eIF4E–eIF4G protein interaction inhibitors, dose response, biochemical, TR-FRET (AID 855).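 Also: potency for disrupting eIF4E binding to eIF4GI seen as loss of FRET.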 It counts as functional.
Chain of Eukaryotic translation initiation factor 4E (P63073 whole entry): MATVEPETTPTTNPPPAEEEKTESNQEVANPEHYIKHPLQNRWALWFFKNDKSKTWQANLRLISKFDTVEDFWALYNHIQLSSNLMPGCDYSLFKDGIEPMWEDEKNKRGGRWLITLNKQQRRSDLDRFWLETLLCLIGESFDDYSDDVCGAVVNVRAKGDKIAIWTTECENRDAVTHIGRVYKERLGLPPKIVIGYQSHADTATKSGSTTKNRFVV
A short description of assay [5]: THP-1 cell cytotoxicity, dose response, cytotoxicity control for non-replicating M. tuberculosis project (AID 489025). The format is functional.
Assay [6] is described as follows: Shn3 3'UTR reporter inhibitors, dose response, cell-based, Clone20 osteoblasts, firefly luciferase, cherry-picked (AID 624132).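 Also: firefly luciferase luminescence from reporter carrying the Shn3 3'UTR in osteoblasts.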 The format is functional.
The target of assay [7] is T1, Microphthalmia-associated transcription factor (Homo sapiens, UniProt O75030).
T1 sequence (O75030 whole entry): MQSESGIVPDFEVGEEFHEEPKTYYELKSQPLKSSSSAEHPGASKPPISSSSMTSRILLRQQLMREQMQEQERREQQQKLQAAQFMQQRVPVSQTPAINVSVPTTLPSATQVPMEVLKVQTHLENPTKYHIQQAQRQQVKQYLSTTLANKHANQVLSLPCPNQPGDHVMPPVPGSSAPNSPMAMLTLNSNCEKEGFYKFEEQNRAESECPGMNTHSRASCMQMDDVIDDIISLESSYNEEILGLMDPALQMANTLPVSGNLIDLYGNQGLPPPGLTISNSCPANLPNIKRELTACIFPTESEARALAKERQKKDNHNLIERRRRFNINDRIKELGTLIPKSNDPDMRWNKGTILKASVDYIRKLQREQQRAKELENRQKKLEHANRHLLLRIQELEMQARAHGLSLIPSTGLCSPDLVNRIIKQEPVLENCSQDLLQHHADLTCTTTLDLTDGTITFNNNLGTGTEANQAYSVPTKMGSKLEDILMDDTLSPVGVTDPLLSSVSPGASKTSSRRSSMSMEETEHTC
Nature of the assay: TRPM1 promoter luciferase signal decrease, dose response, MITF inhibitor project, cell-based, SK-MEL-5, cherry-picked, set 3 (AID 493073).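 Also: SK-MEL-5 melanoma cells with luciferase driven by the MITF target TRPM1 promoter.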 It counts as functional.

Assay [8] in a line: control 3'UTR Renilla luciferase suppression, dose response, counter-screen for Shn3 inhibitor project, cell-based, Clone20-Shn3RL, cherry-picked (AID 624133). It counts as functional. In general terms: Counterscreens check selectivity or assay interference.
Assay [9] deals with A-375. Nature of the assay: MITF: Counter assay: A375 proliferation Measured in Cell-Based System Using Plate Reader - 2084-03_Inhibitor_Dose_DryPowder_Activity. [Related pubchem assays (depositor defined):AID488944]. It counts as functional. The conditions noted are these: Homo sapiens.
Assay [10] concerns A-375. Nature of the assay: A375 melanoma cell viability reduction, dose response, counter-screen for MITF modulator project, cherry-pick samples, set 2 (AID 540335). The format is functional, cell-based. The conditions noted are these: Homo sapiens.
For assay [11], the target named is FAD-linked sulfhydryl oxidase ALR (Homo sapiens, UniProt P55789). As to the kind of experiment: inhibitors of human ALR sulfhydryl oxidase, dose response, biochemical, H2O2 detection, luminescence, cherry-pick (AID 493248).
Chain of FAD-linked sulfhydryl oxidase ALR (P55789 whole entry): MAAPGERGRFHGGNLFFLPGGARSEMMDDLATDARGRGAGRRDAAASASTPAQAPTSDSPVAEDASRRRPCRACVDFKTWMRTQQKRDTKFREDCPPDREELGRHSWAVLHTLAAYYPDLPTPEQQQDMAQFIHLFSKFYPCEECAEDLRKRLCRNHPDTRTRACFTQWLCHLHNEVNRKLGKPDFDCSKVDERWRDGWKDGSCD
The target in assay [12] is T2, Apoptotic protease-activating factor 1 (Homo sapiens, UniProt O14727).
T2 sequence (O14727 whole entry): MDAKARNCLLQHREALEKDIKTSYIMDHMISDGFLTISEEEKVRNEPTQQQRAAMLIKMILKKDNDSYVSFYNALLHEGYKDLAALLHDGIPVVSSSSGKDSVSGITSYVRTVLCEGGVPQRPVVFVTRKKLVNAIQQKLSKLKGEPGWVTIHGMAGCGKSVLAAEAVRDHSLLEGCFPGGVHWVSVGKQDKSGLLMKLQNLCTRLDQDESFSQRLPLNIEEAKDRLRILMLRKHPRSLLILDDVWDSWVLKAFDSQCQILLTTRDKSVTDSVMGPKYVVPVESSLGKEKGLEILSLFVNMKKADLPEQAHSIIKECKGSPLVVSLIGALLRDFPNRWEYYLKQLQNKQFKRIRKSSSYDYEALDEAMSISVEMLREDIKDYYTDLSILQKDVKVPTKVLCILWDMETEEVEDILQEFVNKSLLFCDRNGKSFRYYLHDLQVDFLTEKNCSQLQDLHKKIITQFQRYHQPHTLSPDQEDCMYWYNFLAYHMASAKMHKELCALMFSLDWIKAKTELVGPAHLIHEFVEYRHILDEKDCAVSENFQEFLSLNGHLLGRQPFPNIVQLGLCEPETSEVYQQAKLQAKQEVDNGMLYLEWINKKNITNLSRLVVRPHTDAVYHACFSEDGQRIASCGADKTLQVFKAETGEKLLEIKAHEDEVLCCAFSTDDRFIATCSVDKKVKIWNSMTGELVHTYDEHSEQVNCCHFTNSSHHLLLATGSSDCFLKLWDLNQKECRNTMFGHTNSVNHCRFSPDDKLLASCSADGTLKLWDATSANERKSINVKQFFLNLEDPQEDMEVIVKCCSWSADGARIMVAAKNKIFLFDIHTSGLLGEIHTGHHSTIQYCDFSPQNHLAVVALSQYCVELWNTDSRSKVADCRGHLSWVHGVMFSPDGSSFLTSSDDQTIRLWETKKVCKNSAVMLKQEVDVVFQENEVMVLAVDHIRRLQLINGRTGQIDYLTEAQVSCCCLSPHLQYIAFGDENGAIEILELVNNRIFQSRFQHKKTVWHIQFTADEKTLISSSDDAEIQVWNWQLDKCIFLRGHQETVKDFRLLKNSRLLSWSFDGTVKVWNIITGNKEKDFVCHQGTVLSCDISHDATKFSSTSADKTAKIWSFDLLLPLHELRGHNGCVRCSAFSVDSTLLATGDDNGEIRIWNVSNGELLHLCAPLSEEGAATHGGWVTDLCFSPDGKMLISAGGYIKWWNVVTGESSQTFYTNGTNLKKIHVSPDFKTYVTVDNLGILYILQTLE
Nature of the assay: activation of Apaf-1 mediated apoptosis – fluorescent, uHTS hits, dose response (AID 588554). It counts as functional.

Chain of Voltage-gated inwardly rectifying potassium channel KCNH2 (Q12809 whole entry): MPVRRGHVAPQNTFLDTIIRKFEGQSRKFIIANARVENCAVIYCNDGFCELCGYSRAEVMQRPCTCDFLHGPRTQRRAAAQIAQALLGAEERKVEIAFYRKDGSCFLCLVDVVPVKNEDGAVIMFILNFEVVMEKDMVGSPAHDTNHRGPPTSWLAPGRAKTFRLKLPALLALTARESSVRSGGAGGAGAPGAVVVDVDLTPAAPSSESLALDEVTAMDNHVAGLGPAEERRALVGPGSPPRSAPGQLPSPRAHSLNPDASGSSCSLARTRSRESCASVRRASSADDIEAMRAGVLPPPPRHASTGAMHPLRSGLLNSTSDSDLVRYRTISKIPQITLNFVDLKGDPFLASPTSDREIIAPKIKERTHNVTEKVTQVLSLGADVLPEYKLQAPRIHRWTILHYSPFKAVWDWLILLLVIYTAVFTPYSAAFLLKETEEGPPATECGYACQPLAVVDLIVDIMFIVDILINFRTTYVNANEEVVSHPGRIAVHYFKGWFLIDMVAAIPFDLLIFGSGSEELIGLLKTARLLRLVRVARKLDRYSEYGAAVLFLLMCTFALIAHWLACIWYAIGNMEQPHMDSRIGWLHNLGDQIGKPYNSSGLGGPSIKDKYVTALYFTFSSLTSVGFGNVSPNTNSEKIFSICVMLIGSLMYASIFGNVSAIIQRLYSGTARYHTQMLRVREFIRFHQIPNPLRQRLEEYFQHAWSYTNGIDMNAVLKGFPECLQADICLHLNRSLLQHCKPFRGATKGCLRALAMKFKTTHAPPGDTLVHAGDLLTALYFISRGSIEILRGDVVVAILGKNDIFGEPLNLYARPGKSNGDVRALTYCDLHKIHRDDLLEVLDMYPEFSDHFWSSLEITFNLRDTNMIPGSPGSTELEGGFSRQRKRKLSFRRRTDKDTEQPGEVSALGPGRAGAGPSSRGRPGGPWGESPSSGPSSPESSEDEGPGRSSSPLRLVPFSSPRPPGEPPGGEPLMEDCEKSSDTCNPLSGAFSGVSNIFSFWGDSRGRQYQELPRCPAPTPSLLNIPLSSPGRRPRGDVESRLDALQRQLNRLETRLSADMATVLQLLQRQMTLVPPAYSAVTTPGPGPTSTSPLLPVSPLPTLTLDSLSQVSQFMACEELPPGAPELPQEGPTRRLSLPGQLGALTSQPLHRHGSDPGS

Usually AC50 stands for the midpoint of the concentration-response curve, whichever way the signal moves. As for `COc1ccccc1N1CCN(CCN(C(=O)C2CCCCC2)c2ccccn2)CC1`, the concentration at half-maximal activity (AC50) in assay [1] is 31.6 µM (inconclusive).

Usually IC50 stands for the concentration at which inhibition is half-maximal. A word on the CC50: it is the concentration that lowers cell viability or growth by half. For the compound `Cc1ccc(Oc2c(C(N)=O)cc([N+](=O)[O-])cc2[N+](=O)[O-])cc1`, the IC50 is > 66.6 µM (inactive) at Beta-galactosidase, 1.31 µM (active) in “cells” and > 64 µM (inactive) in [4]. The concentration at half-maximal activity (AC50) in [2] is 25.2 µM (active); in assay [3], 2.99 µM (active); in [6], 11.9 µM (active); in assay [7], 3.68 µM (active); in assay [8] it was 4.73 µM (active); in the assay with A-375 [9] it was > 11 µM (active). Besides, the AC50 with A-375 [10] is > 11 µM (active). Besides, in assay [5], the CC50 is 22.4 µM (active).

By EC50 is commonly meant the concentration that produces a half-maximal response. `N#CCCn1cc(C(CC(=O)c2ccc(Br)cc2)C(=O)O)c2ccccc21` (centres undefined): the AC50 in assay [11] is > 100 µM (inactive). The concentration giving a half-maximal response (EC50) in assay [12] was 22.9 µM (active).
